Earlier results on one molecule are cited in patent publication US5196203A, “Theophylline dosage form” (priority 1989, dated 1993).

Take `Cn1c(=O)c2[nH]cnc2n(C)c1=O` [Theophylline, 1,3-dimethylxanthine]: the “Effect at plasma concentrations above 20 mg/L” value was “often associated with theophylline toxicity”.
